For the assay, the system named is P388 leukemia ip, CD2F1 mice, survival T/C. The experiment in a line: NCI In Vivo Anticancer Drug Screen. Data for tumor model P388 Leukemia (intraperitoneal) in CD2F1 (CDF1) mice. As to conditions: endpoint: median survival time, higher = longer survival. In a few lines:
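Mice carrying the transplanted tumor received test compound or vehicle. Survival was recorded in each group, and the value is the treated-group measurement divided by that of the vehicle-treated control group.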

[1] abbreviates: dose: 12.5 mg/kg/injection, schedule: Q01DX009 (ip), vehicle: saline with Tween-80.
Where [2] appears, read: dose: 100.0 mg/kg/injection, schedule: Q01DX009 (ip), vehicle: saline.
Where [3] appears, read: dose: 200.0 mg/kg/injection, schedule: Q01DX009 (ip), vehicle: saline.
Where [4] appears, read: dose: 50.0 mg/kg/injection, schedule: Q01DX005 (ip), vehicle: Klucel (hydroxypropylcellulose) (HPC).
The mark [5] stands for this setting: dose: 100.0 mg/kg/injection, schedule: Q01DX005 (ip), vehicle: Klucel (hydroxypropylcellulose) (HPC).
The mark [6] stands for this setting: dose: 200.0 mg/kg/injection, schedule: Q01DX005 (ip), vehicle: Klucel (hydroxypropylcellulose) (HPC).
[7] abbreviates: dose: 50.0 mg/kg/injection, schedule: Q04DX003 (ip), vehicle: saline.
Setting [8] is: dose: 100.0 mg/kg/injection, schedule: Q04DX003 (ip), vehicle: saline.
[9] abbreviates: dose: 25.0 mg/kg/injection, schedule: Q01DX009 (ip), vehicle: saline with Tween-80.
The mark [10] stands for this setting: dose: 50.0 mg/kg/injection, schedule: Q01DX009 (ip), vehicle: saline with Tween-80.
Where [11] appears, read: dose: 100.0 mg/kg/injection, schedule: Q01DX009 (ip), vehicle: saline with Tween-80.
Setting [12] is: dose: 200.0 mg/kg/injection, schedule: Q04DX003 (ip), vehicle: saline.

Values joined by “and” are separate entries in the source; they are usually repeats but may differ in a detail not shown here. Equal entries are not always repeated. Inconclusive results and toxic doses are left out.

In the case of `CCCCCCCCCCCCCCCC(=O)N(CCC#N)C(C)(C)CCC(C)(C)N(CCC#N)C(=O)CCCCCCCCCCCCCCC`, the T/C reads like this: (dose: 12.5 mg/kg/injection, schedule: Q01DX009 (ip), vehicle: Klucel (hydroxypropylcellulose) (HPC)) 99 % of control; (dose: 12.5 mg/kg/injection, schedule: Q04DX003 (ip), vehicle: Klucel (hydroxypropylcellulose) (HPC)) 88 % of control; (dose: 25.0 mg/kg/injection, schedule: Q01DX009 (ip), vehicle: Klucel (hydroxypropylcellulose) (HPC)) 98 % of control; (dose: 25.0 mg/kg/injection, schedule: Q04DX003 (ip), vehicle: Klucel (hydroxypropylcellulose) (HPC)) 88 % of control; (dose: 50.0 mg/kg/injection, schedule: Q01DX009 (ip), vehicle: Klucel (hydroxypropylcellulose) (HPC)) 97 % of control; (dose: 100.0 mg/kg/injection, schedule: Q01DX009 (ip), vehicle: Klucel (hydroxypropylcellulose) (HPC)) 91 % of control. Further, the T/C (dose: 200.0 mg/kg/injection, schedule: Q01DX009 (ip), vehicle: Klucel (hydroxypropylcellulose) (HPC)) is 91 % of control and the T/C (dose: 200.0 mg/kg/injection, schedule: Q04DX003 (ip), vehicle: Klucel (hydroxypropylcellulose) (HPC)) was 94 % of control.
Regarding `O=C(CBr)c1ccc(F)cc1`, the T/C is, setting by setting: under setting [1], 113 % of control; (dose: 25.0 mg/kg/injection, schedule: Q04DX003 (ip), vehicle: saline with Tween-80) 104 % of control; (dose: 50.0 mg/kg/injection, schedule: Q04DX003 (ip), vehicle: saline with Tween-80) 100 % of control.
On to `COc1cc2c(cc1OC(C)=O)C=CCCC2=O`, for which the T/C (dose: 100.0 mg/kg/injection, schedule: Q04DX003 (ip), vehicle: saline with Tween-80) was 105 % of control; the T/C (dose: 200.0 mg/kg/injection, schedule: Q04DX003 (ip), vehicle: saline with Tween-80) was 100 % of control; the T/C (dose: 400.0 mg/kg/injection, schedule: Q04DX003 (ip), vehicle: saline with Tween-80) was 105 % of control.
`CC1C(=O)NC(=O)CC1c1ccccc1` (centres undefined): the T/C by setting is: (dose: 100.0 mg/kg/injection, schedule: Q04DX002 (ip), vehicle: saline with Tween-80) 100 % of control; (dose: 200.0 mg/kg/injection, schedule: Q04DX002 (ip), vehicle: saline with Tween-80) 103 % of control; (dose: 400.0 mg/kg/injection, schedule: Q04DX002 (ip), vehicle: saline with Tween-80) 95 % of control.
Take `C=CCS(=O)(=O)O`: the T/C runs as follows: under setting [2], 100 % of control; under setting [3], 104 % of control; (dose: 400.0 mg/kg/injection, schedule: Q01DX009 (ip), vehicle: saline) 100 % of control.
Take `CCOC(=O)C(CC)C(O)(c1ccc2c(c1)OCO2)c1cc(OC)c(OC)c(OC)c1` (centres undefined): the T/C is 96 % of control under setting [4], 94 % of control under setting [5] and 93 % of control under setting [6].
For `CCCCCC(Cn1ccnc1)c1c(Cl)cccc1Cl` (centres undefined), the T/C was 103 % of control (dose: 25.0 mg/kg/injection, schedule: Q04DX003 (ip), vehicle: saline); 100 % of control under setting [7]; 91 % of control under setting [8].
For the compound `Cn1c(O)c(C2=NC(C(=O)O)CS2)c(=O)n(C)c1=O` (centres undefined), the T/C (dose: 60.0 mg/kg/injection, schedule: Q01DX005 (ip), vehicle: saline) was 100 % of control; the T/C (dose: 120.0 mg/kg/injection, schedule: Q01DX005 (ip), vehicle: saline) is 101 % of control; the T/C (dose: 240.0 mg/kg/injection, schedule: Q01DX005 (ip), vehicle: saline) was 101 % of control.
As for `N#CC(=Nc1ccc2ccccc2c1)C1=C(O)c2ccccc2C1=O`, the T/C by setting is: under setting [4], 101 % of control; under setting [5], 101 % of control; under setting [6], 110 % of control.
For the compound `CCN=C1SCCCS1`, the T/C by setting is: under setting [1], 103 % of control; under setting [9], 118 % of control; under setting [10], 113 % of control and 119 % of control; under setting [11], 117 % of control.
Regarding `Fc1cccc(CSC(=S)Nc2ccc(F)c(F)c2)c1`, the T/C is 116 % of control (dose: 50.0 mg/kg/injection, schedule: Q01DX009 (ip), vehicle: saline); 105 % of control under setting [2]; 115 % of control under setting [3].
Consider `C/C(N=NC(=S)N1CC2CCC(CC2)C1)=C1\C=CC=CN1O`, for which the T/C runs as follows: (dose: 50.0 mg/kg/injection, schedule: Q01DX005 (ip), vehicle: saline with Tween-80) 105 % of control; (dose: 100.0 mg/kg/injection, schedule: Q01DX005 (ip), vehicle: saline with Tween-80) 98 % of control; (dose: 200.0 mg/kg/injection, schedule: Q01DX005 (ip), vehicle: saline with Tween-80) 101 % of control.
In the case of `Nc1cccc(N)n1`, the T/C runs as follows: (dose: 3.12 mg/kg/injection, schedule: Q01DX009 (ip), vehicle: saline) 102 % of control; (dose: 6.25 mg/kg/injection, schedule: Q01DX009 (ip), vehicle: saline) 101 % of control (2×) and 103 % of control; (dose: 12.5 mg/kg/injection, schedule: Q01DX009 (ip), vehicle: saline) 100 % of control and 109 % of control and 114 % of control; (dose: 25.0 mg/kg/injection, schedule: Q01DX009 (ip), vehicle: saline) 112 % of control and 124 % of control.
Take `COC(=O)c1cc(=O)n2cnc3c(ncn3C3OC(CO)C(O)C3O)c2c1` (centres undefined): the T/C is, setting by setting: under setting [8], 98 % of control; under setting [12], 100 % of control; (dose: 400.0 mg/kg/injection, schedule: Q04DX003 (ip), vehicle: saline) 100 % of control.
Take `COc1cc(/C=C/CO)cc(OC)c1OC1OC(CO)C(O)C(O)C1O` (centres undefined): the T/C reads like this: (dose: 10.0 mg/kg/injection, schedule: Q01DX009 (ip), vehicle: saline + alcohol) 100 % of control; (dose: 20.0 mg/kg/injection, schedule: Q01DX009 (ip), vehicle: saline + alcohol) 110 % of control; (dose: 40.0 mg/kg/injection, schedule: Q01DX009 (ip), vehicle: saline + alcohol) 97 % of control; (dose: 80.0 mg/kg/injection, schedule: Q01DX009 (ip), vehicle: saline + alcohol) 100 % of control.
With `CCC1(O)C(=O)OCc2c1cc1n(c2=O)Cc2cc3ccccc3nc2-1` (centres undefined), the T/C runs as follows: (dose: 2.0 mg/kg/injection, schedule: Q04DX003 (ip), vehicle: other) 150 % of control and 153 % of control; (dose: 4.0 mg/kg/injection, schedule: Q04DX003 (ip), vehicle: other) 167 % of control and 178 % of control; (dose: 8.0 mg/kg/injection, schedule: Q04DX003 (ip), vehicle: other) 222 % of control and 229 % of control; (dose: 16.0 mg/kg/injection, schedule: Q04DX003 (ip), vehicle: other) 118 % of control.
For `NC(Cc1ccccc1F)c1nn[nH]n1` (centres undefined), the T/C reads like this: under setting [9], 108 % of control; under setting [10], 97 % of control; under setting [11], 99 % of control.
With `CC(=O)[O-].[NH2-].[NH2-].[NH2-].[NH2-].[NH2-].[O-][Cl+3]([O-])([O-])O.[Ru+8]`, the T/C by setting is: (dose: 3.13 mg/kg/injection, schedule: Q04DX003 (ip), vehicle: saline) 118 % of control; (dose: 3.13 mg/kg/injection, schedule: Q04DX003 (ip), vehicle: water) 99 % of control; (dose: 6.25 mg/kg/injection, schedule: Q04DX003 (ip), vehicle: saline) 113 % of control; (dose: 6.25 mg/kg/injection, schedule: Q04DX003 (ip), vehicle: water) 118 % of control; (dose: 12.5 mg/kg/injection, schedule: Q04DX003 (ip), vehicle: saline) 111 % of control; (dose: 12.5 mg/kg/injection, schedule: Q04DX003 (ip), vehicle: water) 120 % of control.
Take `O=[N+]([O-])c1cccc2c(S(=O)(=O)O)cccc12`: the T/C is, setting by setting: under setting [7], 90 % of control; under setting [8], 100 % of control; under setting [12], 90 % of control.
`O=C1Nc2ccc([N+](=O)[O-])cc2/C1=C/C(=O)c1ccccc1`: the T/C is, setting by setting: (dose: 3.13 mg/kg/injection, schedule: Q01DX009 (ip), vehicle: saline with Tween-80) 101 % of control; (dose: 6.25 mg/kg/injection, schedule: Q01DX009 (ip), vehicle: saline with Tween-80) 98 % of control; under setting [1], 96 % of control; under setting [10], 100 % of control; under setting [11], 108 % of control.

For the origin of these results see PubChem BioAssay AID330 (DTP/NCI, 2004).
